Patent US20220048987A1, “METHOD OF TREATMENT TO PREVENT OR REVERSE AGE-ASSOCIATED INFLAMMATION, COGNITIVE DECLINE, AND NEURODEGENERATION” (The Board of Trustees of the Leland Stanford Junior …, priority 2020, published 2022)
“Also recorded” adds a separate entry of the source.

Legend:
aged mice [1] = assay: Electrophysiology: hippocampal CA1 long-term potentiation (LTP); assay type: in vivo, mouse; conditions: aged (20-22 mo) mice, 2.5 mg/kg/d, 6 weeks; 2.5 mg/kg/day
Procedure: To measure the cellular mechanism of learning and memory, a modified protocol previously described (Latif-Hernandez et al., Frontiers in cellular neuroscience 10, 252, (2016), incorporated herein by reference) was used. Mice were euthanized by cervical dislocation, and hippocampus (HC) was rapidly dissected out into ice-cold (4° C.) artificial cerebrospinal fluid (ACSF), saturated with carbogen (95% O2/5% CO2). ACSF consisted of (in mM): 124 NaCl, 4.9 KCl, 24.6 NaHCO3, 1.20 KH2PO4, 2.0 CaCl2, 2.0 MgSO4, 10.0 glucose, pH 7.4. […] Slices were carefully positioned on a R6501A multi-electrode array (Alpha MED Scientific Inc., Osaka, Japan) with electrodes arrayed in an 8×2 matrix with interpolar distance of 150 μm; each matrix measured 50 μm×50 μm. After 30 min incubation, the field excitatory postsynaptic potentials (fEPSPs) in CA1 were recorded by stimulating downstream electrodes in the CA1 and CA3 regions along the Schaffer collateral pathway. […] The time course of the fEPSP was calculated as the descending slope function for all experiments. […] The mean baseline fEPSP value was calculated and percentage change from baseline after the TBS was analyzed for LTP.

[2] = tested on: human monocyte-derived macrophages (human MDMs); assay: Real-time oxygen consumption rate (OCR) and ECAR (Seahorse) in human MDMs; assay type: cell-based; conditions: human MDMs, dose response, 20 h
Procedure: Cells were plated at 1.8×10^6 cells per well in a Seahorse XF24 Cell Culture Microplate (Agilent). Cells were then treated with indicated inhibitors or agonists in each experiment for 20 h. Cells were washed twice with Agilent Seahorse XF Media (Agilent) supplemented with 1 mM pyruvate, 2 mM L-glutamine, and 10 mM D-glucose; a final volume of 525 μl was placed in each well. Cells were then incubated in a 0% CO2 chamber at 37° C. for 1 h before being placed into a Seahorse XFe24 Analyzer (Agilent). For OCR and ECAR mitostress test experiments, cells were treated with 1 μM oligomycin, 2 μM carbonyl cyanide p-trifluoromethoxyphenylhydrazone (FCCP), and 0.5 μM rotenone/antimycin (indicated by three black arrows in each seahorse trace). For mitoFlex Fuel test experiments, cells were treated with UK5099 (200 μM) and BPTES (200 μM)/Etomoxir (80 μM). A total of three OCR and pH measurements were taken after each compound was administered. All Seahorse experiments were repeated at least three times unless otherwise indicated. All OCR and ECAR data were normalized to cell number per well using CyQUANT (ThermoFisher Scientific, Waltham, Mass., USA).
Peripheral blood mononuclear cells from de-identified healthy donors (young<35 years old, aged>65 years old) were obtained from the Stanford Blood Center and transferred to 50 ml conical tubes. Samples were diluted with 20 ml PBS and layered onto 10 ml of Ficoll-Paque (GE Healthcare) using a Pasteur pipette. Tubes were centrifuged at 1,500 r.p.m. for 25 min without brake at 20° C. The mononuclear cell layer was transferred to a new 50 ml conical tube, resuspended in 50 ml 1×PBS and centrifuged at 1500 r.p.m. for 10 min, repeated twice. After centrifugation, monocytes were isolated using a Monocyte Isolation Kit, human (MACS; Miltenyi Biotech). Cells were then plated 10×10^6 per 10-cm petri dish and differentiated for 7 days in Roswell Park Memorial Institute (RPMI) media supplemented with 10% FBS, 1% penicillin-streptomycin, and 50 ng ml^−1 M-CSF (Peprotech).

aged mice [3] = assay: Chemokine and cytokine multiplex assay of plasma and hippocampus of treated mice; assay type: in vivo, mouse; conditions: aged (20-22 mo) mice, 2.5 mg/kg/d by gavage, 6 weeks
Procedure: PGE2, Butaprost, PF04418948 and Iloprost were purchased from Millipore-Sigma (Burlington, Mass., USA). ONO-AE248 and ONO-AE1-329 were gifts from Ono Pharmaceuticals (Osaka, Japan). Compound 52 (Charnwood Molecular Ltd, Loughborough, UK) and PF04418948 (Millipore-Sigma, Burlington, Mass., USA) were resuspended in 40% PEG (Sigma-Aldrich) and 60% of a 30% Kolliphor HS15 solution (Sigma-Aldrich), and administered orally at 10 mg/kg/d and 2.5 mg/kg/d, respectively. U-^13C-Glucose, U-^13C-Lactate, U-^13C-Glutamine, and U-^13C-Pyruvate were purchased from Cambridge Isotopes (Tewksbury, Mass., USA). HUSH-29 plasmids containing shRNAs to human GYS1 were purchased from Origene Technologies (Rockville, Md., USA). Human monocyte derived macrophages were incubated with 1640 Media with GlutaMAX+HEPES without sodium pyruvate (ThermoFisher, catolog No. 72400146). […]
Hippocampal lysates or mouse plasma were stored at −80° C. and cytokine analysis was carried out at the Human Immune Monitoring Core (Stanford University) or Eve Technologies (Calgary, Alberta, Canada) using Luminex mouse 39-plex kits and Human 71-plex kits. Plates were read using a Luminex LabMap200 instrument or a MSD Chemiluminescence instrument with a lower bound of 100 beads per sample per measured cytokine. […] Mean fluorescence intensity (MFI) was averaged over duplicate wells for each cytokine per sample on each plate. […]

COc1ccc2cc(OCC3(C(=O)O)CN(C(=O)c4ccc(F)cc4)C3)ccc2c1 [PF-04418948]
LTP in CA1 hippocampal region of aged mice (aged mice [1]): restored hippocampal memory function as well as LTP to youthful levels; also recorded: rescued
ECAR (extracellular acidification rate, glycolysis) [2]: increased
basal OCR (oxygen consumption) [2]: increased
pro-inflammatory factors in blood and hippocampus (aged mice [3]): reduced levels of pro-inflammatory factors not only in blood but also in hippocampus
